# Measurements reported in PMC5623949, “Exploiting the 2-Amino-1,3,4-thiadiazole Scaffold To Inhibit Trypanosoma brucei Pteridine Reductase in Support of Early-Stage Drug Discovery” (ACS Omega, 2017).
# Where two headings read alike, the source gives them in different places.
# Tests used:
# TbPTR1 [1] = molecular target: T1, TbPTR1 (Trypanosoma brucei brucei, UniProt O76290); assay: biochemical; conditions: for inhibition at 50 µM: 50 μM compound, read-out: % Inhibition TbPTR1 at 50 μM; for IC50: dose-response 0.001-100 μM
# T1 construct: made in house
# T1 sequence (O76290 1-268): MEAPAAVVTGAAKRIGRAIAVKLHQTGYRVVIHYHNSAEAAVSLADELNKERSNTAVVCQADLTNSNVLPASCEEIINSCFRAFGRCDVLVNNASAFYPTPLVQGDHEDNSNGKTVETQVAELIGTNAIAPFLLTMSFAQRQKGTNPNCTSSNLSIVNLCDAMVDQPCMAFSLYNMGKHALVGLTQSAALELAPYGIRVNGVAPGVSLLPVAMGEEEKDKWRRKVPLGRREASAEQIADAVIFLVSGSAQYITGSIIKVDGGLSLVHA
# [2] = test system: T. b. brucei Lister 427 bloodstream forms; assay: In vitro activity against T. brucei (HTS SYBR Green I growth inhibition assay); format: cell-based, Trypanosoma brucei brucei; conditions: for inhibition at 50 µM / EC50: Trypanosoma brucei; for inhibition at 50 µM: standard deviation within ±10% of the value, read-out: % Inhibition T. brucei at 50 μM; for % Antiparasitic Activity Tb brucei at 50uM: Table S1, compounds I-X
# [3] = test system: T. b. brucei Lister 427 bloodstream forms; assay: T. brucei resazurin assay for MTX potentiation and folic acid supplementation; format: cell-based, Trypanosoma brucei brucei; conditions: for EC50: Trypanosoma brucei
# Protocol: T. b. brucei Lister 427 bloodstream forms were grown at 37 °C and 5% CO2 in a complete HMI-9 medium, supplemented with 10% FCS and 100 UI/mL of penicillin/streptomycin. The cultures were diluted until a cell density of 2 × 10^6/mL was reached. The efficacy of compounds against T. brucei bloodstream forms was evaluated using a modified resazurin-based assay previously described.[46] The compounds were prepared from a stock solution in 10 mM DMSO and diluted in HMI-9 (supplemented or not with 1 mM folic acid, Sigma-Aldrich) to 40 μM work solution (0.4% DMSO, with the DMSO limit in the assay being 0.4%). […] The 40 μM work solution was then used to perform serial dilutions (1:2) in a 96-well plate. Upon compound addition to the test plate, the mid-log bloodstream forms were added (100 μL) in complete HMI-9 medium (supplemented or not with 1 mM folic acid) at a final cell density of 1 × 10^4/mL in a final well volume of 200 μL with a maximum DMSO concentration of 0.2%. Following incubation for 72 h at 37 °C and 5% CO2, 20 μL of 0.5 mM resazurin solution was added, and the plates were incubated further for 4 h under the same conditions. Fluorescence was measured at 540 and 620 nm excitation and emission wavelengths, respectively, using a Synergy 2 multi-mode reader (BioTek). […] This approach requires the use of both compounds at their EC50 potency in the combination, which is impossible to be detected for compound 4m having no intrinsic antiparasitic activity as a single agent at the tested concentrations. Folic acid (1 mM) was chosen on the basis of the following experiments. The stock solution of 10 mM folic acid dissolved in NaOH solution was used to perform a dose–response curve with folic acid alone to evaluate the maximum amount we could use without compromising parasite growth due to pH modification of the media. […] The IC50 values reported are the averages of the results obtained in at least two independent experiments. Pentamidine was used as the reference drug and internal control in all assays.
# hERG = molecular target: T2, hERG (Homo sapiens, UniProt Q12809); design: hERG inhibition liability assay
# T2 construct: gene KCNH2
# T2 sequence (Q12809 whole entry): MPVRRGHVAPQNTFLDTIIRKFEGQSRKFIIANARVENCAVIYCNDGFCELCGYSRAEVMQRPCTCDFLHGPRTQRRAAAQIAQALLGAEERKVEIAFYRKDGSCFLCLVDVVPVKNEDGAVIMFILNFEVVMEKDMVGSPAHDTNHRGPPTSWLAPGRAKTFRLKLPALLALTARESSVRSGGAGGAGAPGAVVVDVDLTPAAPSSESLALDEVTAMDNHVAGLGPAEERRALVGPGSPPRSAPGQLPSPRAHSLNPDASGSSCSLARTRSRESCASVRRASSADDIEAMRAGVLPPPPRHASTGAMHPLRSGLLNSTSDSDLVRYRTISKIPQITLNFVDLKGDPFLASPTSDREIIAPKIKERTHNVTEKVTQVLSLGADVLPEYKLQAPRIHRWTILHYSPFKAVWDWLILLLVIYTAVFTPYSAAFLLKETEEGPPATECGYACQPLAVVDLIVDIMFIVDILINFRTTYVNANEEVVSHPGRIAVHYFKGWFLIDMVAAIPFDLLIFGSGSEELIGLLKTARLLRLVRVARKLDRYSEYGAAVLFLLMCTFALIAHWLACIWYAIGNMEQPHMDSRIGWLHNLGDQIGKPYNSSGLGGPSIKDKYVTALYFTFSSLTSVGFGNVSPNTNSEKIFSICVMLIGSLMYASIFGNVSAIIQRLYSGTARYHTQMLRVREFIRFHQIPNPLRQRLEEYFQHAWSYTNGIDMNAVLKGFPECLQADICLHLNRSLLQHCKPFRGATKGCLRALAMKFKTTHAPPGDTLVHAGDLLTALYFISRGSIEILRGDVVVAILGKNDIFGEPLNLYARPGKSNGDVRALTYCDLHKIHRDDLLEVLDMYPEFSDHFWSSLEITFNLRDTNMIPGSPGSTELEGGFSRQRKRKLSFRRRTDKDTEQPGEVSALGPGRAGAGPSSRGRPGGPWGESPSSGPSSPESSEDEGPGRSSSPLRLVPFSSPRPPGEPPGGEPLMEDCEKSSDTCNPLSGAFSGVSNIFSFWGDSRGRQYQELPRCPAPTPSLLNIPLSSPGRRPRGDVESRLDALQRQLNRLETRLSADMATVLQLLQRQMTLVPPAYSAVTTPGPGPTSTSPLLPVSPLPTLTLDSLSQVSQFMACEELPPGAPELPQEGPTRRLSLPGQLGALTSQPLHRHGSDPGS
# CYP1A2 = molecular target: T3, CYP1A2 (Homo sapiens, UniProt P05177); assay: in vitro; design: cytochrome P450 isoform inhibition liability assay
# T3 sequence (P05177 1-516): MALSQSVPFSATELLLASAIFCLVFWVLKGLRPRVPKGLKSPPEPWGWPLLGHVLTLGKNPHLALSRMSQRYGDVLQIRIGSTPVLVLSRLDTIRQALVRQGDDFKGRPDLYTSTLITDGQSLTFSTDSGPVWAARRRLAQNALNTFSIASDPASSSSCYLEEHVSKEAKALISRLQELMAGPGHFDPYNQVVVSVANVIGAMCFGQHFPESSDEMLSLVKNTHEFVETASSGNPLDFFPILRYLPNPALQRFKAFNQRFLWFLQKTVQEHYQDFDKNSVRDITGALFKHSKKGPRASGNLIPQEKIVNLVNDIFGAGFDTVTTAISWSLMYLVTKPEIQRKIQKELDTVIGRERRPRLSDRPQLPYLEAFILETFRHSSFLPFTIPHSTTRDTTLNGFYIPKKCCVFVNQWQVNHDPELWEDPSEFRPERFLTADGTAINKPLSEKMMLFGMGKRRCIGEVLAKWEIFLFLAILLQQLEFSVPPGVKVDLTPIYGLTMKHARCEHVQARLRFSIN
# CYP2C19 = CYP2C19 (Homo sapiens, UniProt P33261); assay: in vitro; design: cytochrome P450 isoform inhibition liability assay
# CYP2C19, sequence (P33261 whole entry, canonical isoform): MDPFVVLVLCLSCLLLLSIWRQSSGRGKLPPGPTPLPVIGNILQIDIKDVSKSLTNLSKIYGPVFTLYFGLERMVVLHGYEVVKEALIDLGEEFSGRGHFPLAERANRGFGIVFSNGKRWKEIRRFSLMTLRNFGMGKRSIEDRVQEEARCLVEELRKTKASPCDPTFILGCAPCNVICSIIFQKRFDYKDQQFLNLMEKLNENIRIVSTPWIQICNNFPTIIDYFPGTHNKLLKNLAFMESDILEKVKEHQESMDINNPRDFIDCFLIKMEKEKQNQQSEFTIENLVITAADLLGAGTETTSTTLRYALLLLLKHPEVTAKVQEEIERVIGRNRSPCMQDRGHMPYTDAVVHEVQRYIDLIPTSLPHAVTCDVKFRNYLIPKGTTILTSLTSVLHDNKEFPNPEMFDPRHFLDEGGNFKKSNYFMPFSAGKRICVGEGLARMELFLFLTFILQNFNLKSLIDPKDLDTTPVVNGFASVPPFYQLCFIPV
# CYP2C9 = CYP2C9 (Homo sapiens, UniProt P11712); assay: in vitro; design: cytochrome P450 isoform inhibition liability assay
# CYP2C9, sequence (P11712 whole entry, canonical isoform): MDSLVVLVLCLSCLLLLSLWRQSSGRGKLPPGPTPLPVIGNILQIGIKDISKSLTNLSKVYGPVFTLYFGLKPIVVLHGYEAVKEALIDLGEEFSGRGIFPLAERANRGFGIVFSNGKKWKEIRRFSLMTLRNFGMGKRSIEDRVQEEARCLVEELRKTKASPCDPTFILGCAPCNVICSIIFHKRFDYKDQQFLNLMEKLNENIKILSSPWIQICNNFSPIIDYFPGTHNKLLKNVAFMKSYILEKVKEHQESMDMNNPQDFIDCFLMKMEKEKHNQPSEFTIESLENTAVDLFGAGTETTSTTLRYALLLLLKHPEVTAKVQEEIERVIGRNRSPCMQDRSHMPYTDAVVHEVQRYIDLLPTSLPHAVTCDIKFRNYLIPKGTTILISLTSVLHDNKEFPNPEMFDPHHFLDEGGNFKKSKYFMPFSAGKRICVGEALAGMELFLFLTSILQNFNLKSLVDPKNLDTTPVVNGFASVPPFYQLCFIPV
# CYP2D6 = CYP2D6 (Homo sapiens, UniProt P10635); assay: in vitro; design: cytochrome P450 isoform inhibition liability assay
# CYP2D6, sequence (P10635 whole entry, canonical isoform): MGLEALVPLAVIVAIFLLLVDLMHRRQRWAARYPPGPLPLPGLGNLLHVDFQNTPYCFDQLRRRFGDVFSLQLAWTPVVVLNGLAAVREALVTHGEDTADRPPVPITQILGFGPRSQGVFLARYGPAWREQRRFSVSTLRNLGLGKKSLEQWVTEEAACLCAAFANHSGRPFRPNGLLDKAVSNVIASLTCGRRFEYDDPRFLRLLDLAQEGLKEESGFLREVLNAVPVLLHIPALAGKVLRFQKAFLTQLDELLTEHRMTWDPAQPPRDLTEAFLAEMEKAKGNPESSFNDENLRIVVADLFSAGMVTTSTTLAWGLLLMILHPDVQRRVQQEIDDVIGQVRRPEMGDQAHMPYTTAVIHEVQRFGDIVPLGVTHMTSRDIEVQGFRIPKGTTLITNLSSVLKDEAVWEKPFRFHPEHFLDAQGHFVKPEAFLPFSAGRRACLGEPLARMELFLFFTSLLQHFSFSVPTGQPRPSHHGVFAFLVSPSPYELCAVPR
# CYP3A4 = CYP3A4 (Homo sapiens, UniProt P08684); assay: in vitro; design: cytochrome P450 isoform inhibition liability assay
# CYP3A4, sequence (P08684 whole entry, canonical isoform): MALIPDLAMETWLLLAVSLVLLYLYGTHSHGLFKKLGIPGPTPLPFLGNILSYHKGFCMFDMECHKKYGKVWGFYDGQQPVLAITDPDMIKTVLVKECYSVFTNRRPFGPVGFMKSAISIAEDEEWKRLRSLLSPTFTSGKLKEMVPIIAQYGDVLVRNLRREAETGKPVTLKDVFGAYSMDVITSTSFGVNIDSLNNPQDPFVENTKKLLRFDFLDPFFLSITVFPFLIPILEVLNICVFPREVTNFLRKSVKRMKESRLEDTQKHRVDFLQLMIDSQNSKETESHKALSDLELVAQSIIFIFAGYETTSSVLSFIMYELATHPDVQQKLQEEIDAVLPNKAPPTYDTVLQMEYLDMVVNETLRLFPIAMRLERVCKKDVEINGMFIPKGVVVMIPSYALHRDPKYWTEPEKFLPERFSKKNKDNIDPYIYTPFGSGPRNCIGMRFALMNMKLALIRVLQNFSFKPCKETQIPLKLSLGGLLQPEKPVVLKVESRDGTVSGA
# 786-O = assay: cells; design: mitochondrial toxicity in 786-O renal carcinoma cells; conditions: Homo sapiens, 786-0; mitochondrial toxicity
# in vitro [4] = assay: in vitro; design: cytotoxicity, per cent cell growth of A549 cells; conditions: human, a549 cells; read-out: % cell growth A549 at 10uM
# in vitro [5] = assay: in vitro; design: cytotoxicity, per cent cell growth of WI-38 fibroblasts; conditions: human, wi-38 cells; read-out: % cell growth W1-38 at 10uM
# TbPTR1 [6] = molecular target: T1, TbPTR1; assay: TbPTR1 direct enzyme inhibition assay for compounds I-X (Table S1); format: biochemical; conditions: for inhibition at 50 µM: 10 min, pH 6, 50 µM compound; for Ki: competitive inhibition mechanism assumed
# Protocol: (b) PTR1 Enzyme inhibition. Compounds ICX were tested following the direct assay. The samples were incubated for
# 10 minutes at 30 °C, in buffer containing 50 mM Na citrate pH 3.7, TbPTR1, BH2 20 μM. (Dawson et al. Mol.
# Microbiol. 2006, 61 (6), 1457–1468). Reaction start with NADPH. Compound concentrations depend on solubility and
# ranged between 10C300 μM. Ki was calculated assuming a competitive inhibition mechanism.
# mammalian cells = assay: Toxicity against mammalian cells (Table S1); format: cell-based; conditions: read-out: IC50 vs mam.cells
# [7] = test system: T. b. brucei Lister 427 bloodstream forms; design: method as in PMID 27175479, PMID 27703008, PMID 18557814; conditions: no folate supplementation; read-out: reported EC50 T. brucei with no folate supplementation; cited from earlier work
smiles,measurement,setting,value
Nc1nnc(NCc2cccs2)s1 [4c],inhibition at 50 µM,TbPTR1 [1],50.6 ± 2.6%
same,IC50,TbPTR1 [1],112 µM
same,inhibition at 50 µM,[2],< 0%
same,antiparasitic effect as single agent,"[3]; compound alone, 4m at 50 μM",low T. brucei cell inhibitory activity
same,inhibition at 10 µM,hERG,87.3 ± 5.7%
same,inhibition at 10 µM,CYP1A2,-3.2 ± 2.9%
same,inhibition at 10 µM,CYP2C19,-13.9 ± 18%
same,inhibition at 10 µM,CYP2C9,-7.7 ± 4.7%
same,inhibition at 10 µM,CYP2D6,27.4 ± 5.7%
same,inhibition at 10 µM,CYP3A4,-2.6 ± 4.5%
same,inhibition at 10 µM,786-O,4.8 ± 2.9%
same,viability at 10 µM,in vitro [4],142 ± 13.8%
same,viability at 10 µM,in vitro [5],96.3 ± 7.6%
Nc1nnc(CCC(=O)c2cccs2)s1 [3k],inhibition at 50 µM,TbPTR1 [1],26 ± 0.7%
same,IC50,TbPTR1 [1],> 70 µM
same,inhibition at 50 µM,[2],60.7%
same,inhibition at 50 µM,TbPTR1 [6],18%
same,Ki,TbPTR1 [6],48 µM
same,IC50,mammalian cells,> 50 µM
same,inhibition at 10 µM,hERG,0.1 ± 6.4%
same,inhibition at 10 µM,CYP1A2,4.9 ± 1.4%
same,inhibition at 10 µM,CYP2C19,-3.4 ± 15.5%
same,inhibition at 10 µM,CYP2C9,-10.5 ± 2.1%
same,inhibition at 10 µM,CYP2D6,-20.6 ± 3.1%
same,inhibition at 10 µM,CYP3A4,10.3 ± 7.8%
same,inhibition at 10 µM,786-O,-5.2 ± 3.9%
same,viability at 10 µM,in vitro [4],131 ± 2.8%
same,viability at 10 µM,in vitro [5],92 ± 9.7%
Nc1nnc(CCCl)s1 [I],% Antiparasitic Activity Tb brucei at 50uM,[2],90%
same,IC50,mammalian cells,4.2 ± 0.4 µM
Nc1nnc(-c2ccc3[nH]nnc3c2)s1 [IV],% Antiparasitic Activity Tb brucei at 50uM,[2],67%
same,EC50,"[2]; Table S1, read-out: EC50 T. b. brucei (compounds I-IV)",170 µM
same,inhibition at 50 µM,TbPTR1 [6],10%
same,Ki,TbPTR1 [6],88 µM
same,IC50,mammalian cells,51.5 µM
Nc1nnc(-c2cnccc2N)s1 [III],EC50 T. b. brucei (compounds I-IV),[2]; Table S1,not detectable
same,inhibition at 50 µM,TbPTR1 [6],15%
same,Ki,TbPTR1 [6],53 µM
same,IC50,mammalian cells,> 50 µM
"N=C(N)c1ccc(OCCCCCOc2ccc(C(=N)N)cc2)cc1 [Pentamidine, reference compound]",EC50,"[2]; read-out: EC50 T. b. brucei (reference compound, SYBR Green assay)",0.0038 ± 0.00048 µM
same,EC50,"[3]; read-out: average EC50 T. brucei (reference drug, resazurin assay)",0.00228 ± 0.00118 µM
"CN(Cc1cnc2nc(N)nc(N)c2n1)c1ccc(C(=O)N[C@@H](CCC(=O)O)C(=O)O)cc1 [MTX, methotrexate, reference compound]",effect of 1 mM folic acid on T. b. brucei growth inhibition,"[3]; 1 mM folic acid, MTX alone or equimolar 4m + MTX",reduce the antiparasitic activity
same,EC50,"[3]; media supplemented with 9 μM folic acid, read-out: EC50 T. brucei, single agent",35 ± 3 µM
same,EC50,[7],0.012 µM
